≈ marks a conversion by molar mass, not a printed value. Like-named read-outs stand apart in the source and are kept apart here. Ends that are not written are not given here. Peptide text beside a SMILES is read from it.

Type in all cases: cell-based
The subject of one data set is rat red blood cells. Description: Hemolytic activity test. As to the method:
Peptides were obtained from GL Biochem (Shanghai, China), and their fidelity was further confirmed via matrix-assisted laser desorption/ionization time-of-flight mass spectroscopy (MALDI-TOF MS, Model Autoflex II, Bruker Daltonics Inc., U.S.A.), using α-cyano-4-hydroxycinnamic acid as matrix. The purity of the peptides was also tested to be more than 95% with analytical reverse phase (RP)-HPLC. α-Cyano-4-hydroxycinnamic acid (HCCA) was purchased from Sigma-Aldrich (Singapore) and used in saturated acetonitrile/water (1:1 volume ratio) after being re-crystallized. Sodium dodecyl sulphate (SDS) micelle solution (10% w/v in DI water) was obtained from 1st Base (Malaysia) and used upon dilution to the desirable concentration range. Tryptic soy broth (TSB) powder and yeast mould broth (YMB) powder were purchased from BD Diagnostics (Singapore) and used to prepare the microbial broths according to the manufacturer's instructions. Phosphate-buffered saline solution at 10× concentration was purchased from 1st Base (Malaysia) and used after dilution to the desired concentration. Ethanol (analytical grade, 99%) and glutaraldehyde (synthetic grade, 50% in H2O) were purchased from Sigma Aldrich (Singapore) and used as received. […] Red blood cells used in the experiments were obtained from rats maintained at the Animal Handling Units of the Biomedical Research Centers (Singapore). Human peripheral blood mononuclear cells (PBMCs) were extracted from healthy blood donors and maintained with RPMI medium supplemented with 10% lowendotoxin fetal bovine serum (FBS) and 1% penicillin-streptomycin. Granulocyte macrophage-colony stimulating factor (GM-CSF) and lipopolysaccharide were purchased from Sigma-Aldrich and used as received.
Fresh red blood cells were washed with PBS for three times, and were subjected to 25 times dilution with PBS to reach a concentration of approximately 4% (in volume) of the blood cells. The red blood cell suspension (100 μL) was placed into a 96-well cell culture plate and mixed with 100 μL of the antimicrobial peptide solution in PBS at concentrations of 0.98, 1.95, 3.90, 7.81, 15.63, 31.25, 62.5, 125, 250, 500 mg/L. The mixture was then incubated at 37° C. for 1 hour to allow for the hemolysis process to take place. At the end of incubation time, the non-hemolysed red blood cells were separated by centrifugation at 13000 g for 5 minutes. Aliquots (100 μL) of the supernatant were transferred into a new 96-well plate, and the hemoglobin release was measured by checking the UV-absorbance of the samples at 576 nm using a microplate reader (TECAN, Switzerland). Two controls were provided in this assay: an untreated red blood cell suspension in PBS was used as the negative control, and a solution containing red blood cells lysed with 0.1% Triton-X was used as the positive control. Each assay was performed in 6 replicates, and the data were expressed as means and standard deviations of the 6 replicates. Percentage of hemolysis was calculated using the following formula: Hemolysis (%)=[(O.D.576 nm of the treated sample−O.D.576 nm of the negative control)/(O.D.576 nm of positive control−O.D.576 nm of negative control)]×100%. Field Emission-Scanning Electron Microscopy (FE-SEM) Analysis of Bacterial Cells

For the next data set, the system named is E. coli. As to the method:
(§1) Microbial cells were firstly re-constituted from its lyophilized form according to the manufacturer's protocol. Bacterial cells were cultured in tryptic soy broth (TSB) at 37° C., and yeast cells were cultured in yeast mould broth (YMB) at room temperature under constant shaking at 100 rpm. Broth containing an antimicrobial peptide was prepared at various concentrations (0.98, 1.95, 3.90, 7.81, 15.63, 31.25, 62.5, 125, 250, 500 mg/L) and transferred into a 96-well tissue culture plate (100 μL/well). Microorganism was first inoculated overnight to enter its log growth-phase. An equal volume of microorganism solution (100 μL) was added into each well of the 96-well plate containing the antimicrobial peptide. Prior to this mixing, the concentration of microorganism solution was adjusted to give an initial optical density (O.D.) reading of 0.1-0.2 at 600 nm wavelength. The growth of the microorganism was observed upon introducing the antimicrobial peptide by measuring the O.D. readings at 2 hour intervals for up to 8 hours. […] Broth containing microbial cells was used as the negative control, and each test was carried out in 6 replicates. The standard deviations of the 6 readings were reported as the error bars.

For a further data set, the system named is P. aeruginosa. As to the method:
as §1

For a further data set, the system named is B. subtilis. As to the method: as §1
The next data set deals with C. albicans. As to the method: as §1
Setting [1] is: 8 hours incubation, tryptic soy broth, 37° C.

Consider `CC(C)C[C@H](NC(=O)[C@H](CC(C)C)NC(=O)[C@H](CCCCN)NC(=O)[C@H](CCCCN)NC(=O)[C@H](CC(C)C)NC(=O)[C@H](CC(C)C)NC(=O)[C@@H](N)CS)C(=O)N[C@@H](CCCCN)C(=O)N[C@@H](CCCCN)C(=O)N[C@@H](CS)C(N)=O` [CLLKKLLKKC-NH2] (H-CLLKKLLKKC-NH2), for which, in the data set with rat red blood cells (red cells of rat, 1 h), the “HC50 (50% hemolytic concentration)” value is recorded as greater than 2500 mg/L. Besides, in the data set on E. coli (8 h), the “MIC E. coli” value is 225 µg/mL (≈ 189 µM). Further, the “MIC P. aeruginosa” value against P. aeruginosa (8 h) turned out to be 125 µg/mL (≈ 105 µM). Further, in the data set with B. subtilis (8 h), the “MIC B. subtilis” value was found to be 125 µg/mL (≈ 105 µM). Also, in the data set on C. albicans (8 h), the “MIC C. albicans” value stood at 250 µg/mL (≈ 210 µM).
As to `CC(C)C[C@H](NC(=O)[C@H](CC(C)C)NC(=O)[C@H](CCCCN)NC(=O)[C@H](CCCCN)NC(=O)[C@H](CC(C)C)NC(=O)[C@H](CC(C)C)NC(=O)[C@H](CCCCN)NC(=O)[C@H](CCCCN)NC(=O)[C@H](CC(C)C)NC(=O)[C@H](CC(C)C)NC(=O)[C@@H](N)CS)C(=O)N[C@@H](CCCCN)C(=O)N[C@@H](CCCCN)C(=O)N[C@@H](CS)C(N)=O` [CLLKKLLKKLLKKC-NH2] (H-CLLKKLLKKLLKKC-NH2), in the data set on rat red blood cells (rat red blood cells, 37° C., 1 hour), the “HC50 (50% hemolytic concentration)” value is listed as roughly 82 mg/L. Further, the “MIC E. coli” value in the data set with E. coli (setting [1]) is 125 µg/mL (≈ 74.8 µM). For the same compound, the “MIC P. aeruginosa” value with P. aeruginosa (8 hours incubation) was 125 µg/mL (≈ 74.8 µM). Moreover, in the data set on B. subtilis (setting [1]), the “MIC B. subtilis” value stood at 31 µg/mL (≈ 18.5 µM). For the same compound, the “MIC C. albicans” value with C. albicans (8 hours incubation, yeast mould broth, room temperature) amounted to 125 µg/mL (≈ 74.8 µM).
As to “AARRAARRAARR-NH2 [(AARR)3, AARRAARRAARR-NH2]”, in the data set on rat red blood cells (red cells of rat, 1 h), the “HC50 (50% hemolytic concentration)” value was greater than 500 mg/L. Moreover, the “MIC E. coli” value in the data set with E. coli (8 h) is greater than 500 µg/mL. Also, the “MIC B. subtilis” value in the data set on B. subtilis (8 h) is greater than 500 µg/mL. Moreover, the “MIC C. albicans” value in the data set with C. albicans (8 h) is greater than 500 µg/mL.
In the case of FFRRFFRR-NH2 [(FFRR)2, FFRRFFRR-NH2], the “HC50 (50% hemolytic concentration)” value in the data set with rat red blood cells (red cells of rat, 1 h) is recorded as greater than 500 mg/L. In addition, in the data set on E. coli (8 h), the “MIC E. coli” value was greater than 500 µg/mL. In addition, the “MIC B. subtilis” value against B. subtilis (8 h) worked out at 125 µg/mL. The “MIC C. albicans” value against C. albicans (8 h) was greater than 500 µg/mL.
As to “FFRRFFRRFFRR-NH2 [(FFRR)3, FFRRFFRRFFRR-NH2]”, in the data set with rat red blood cells, the “hemolysis at the MIC against B. subtilis” value was “less than 5%” and the “hemolysis at the MIC level for C. albicans” value is given as 12-24%. Further, the “HC50 (50% hemolytic concentration)” value in the data set on rat red blood cells (red cells of rat, 1 h) was greater than 500 mg/L. Further, in the data set on E. coli (8 h), the “MIC E. coli” value is greater than 500 µg/mL. In the data set with B. subtilis (8 h), the “MIC B. subtilis” value is 31.3 µg/mL. In the data set with C. albicans (8 h), the “MIC C. albicans” value came out at 125 µg/mL.
On to “FFRRFFRRFFRRFFRR-NH2 [(FFRR)4, FFRRFFRRFFRRFFRR-NH2]”, for which the “hemolysis at the MIC against B. subtilis” value in the data set with rat red blood cells is on record as “around 50%”. Also, in the data set with rat red blood cells (red cells of rat, 1 h), the “HC50 (50% hemolytic concentration)” value was roughly 26 mg/L. Moreover, in the data set on E. coli (8 h), the “MIC E. coli” value was greater than 50 µg/mL. In addition, in the data set on B. subtilis (8 h), the “MIC B. subtilis” value was 20 µg/mL. The “MIC C. albicans” value against C. albicans (8 h) was greater than 50 µg/mL.
On to LLKKLLKKC-NH2 [LLKKLLKKC-NH2], for which the “HC50 (50% hemolytic concentration)” value with rat red blood cells (red cells of rat, 1 h) is greater than 2500 mg/L. Moreover, the “MIC E. coli” value in the data set with E. coli (8 h) is greater than 500 µg/mL. Moreover, the “MIC P. aeruginosa” value in the data set with P. aeruginosa (8 h) was 63 µg/mL. Moreover, in the data set on B. subtilis (8 h), the “MIC B. subtilis” value stood at 125 µg/mL. In addition, the “MIC C. albicans” value in the data set on C. albicans (8 h) came to 250 µg/mL.
Consider “LLKKLLKKLLKK-NH2 [(LLKK)3, LLKKLLKKLLKK-NH2]”, for which the “hemolysis at the MIC against B. subtilis” value in the data set on rat red blood cells is on record as “less than 5%”. Further, in the data set with rat red blood cells (red cells of rat, 1 h), the “HC50 (50% hemolytic concentration)” value was greater than 500 mg/L. For the same compound, the “MIC E. coli” value against E. coli (8 h) is greater than 500 µg/mL. In addition, the “MIC B. subtilis” value against B. subtilis (8 h) worked out at 31.3 µg/mL. The “MIC C. albicans” value in the data set on C. albicans (8 h) stood at 125 µg/mL.
For “LLRRLLRRLLRR-NH2 [(LLRR)3, LLRRLLRRLLRR-NH2]”, in the data set with rat red blood cells, the “hemolysis at the MIC against B. subtilis” value is listed as “less than 5%” and the “hemolysis at the MIC level for C. albicans” value was 12-24%. In the data set with rat red blood cells (red cells of rat, 1 h), the “HC50 (50% hemolytic concentration)” value is listed as greater than 500 mg/L. The “MIC E. coli” value with E. coli (8 h) was greater than 500 µg/mL. Besides, the “MIC B. subtilis” value against B. subtilis (8 h) was determined as 15.6 µg/mL. Further, the “MIC C. albicans” value in the data set with C. albicans (8 h) was 500 µg/mL.
“LLRRLLRRLLRRLLRR-NH2 [(LLRR)4, LLRRLLRRLLRRLLRR-NH2]”: the “hemolysis at the MIC against B. subtilis” value with rat red blood cells is recorded as “around 50%”. The “HC50 (50% hemolytic concentration)” value with rat red blood cells (red cells of rat, 1 h) is listed as roughly 12 mg/L. In addition, the “MIC E. coli” value in the data set with E. coli (8 h) is greater than 50 µg/mL. In addition, the “MIC B. subtilis” value against B. subtilis (8 h) was 10 µg/mL. For the same compound, the “MIC C. albicans” value in the data set on C. albicans (8 h) was greater than 50 µg/mL.

The record behind these values is US9234004B2, “Antimicrobial peptides” (Agency for Science, Technology and Research, priority 2010, dated 2016).
